Data on 3 compounds can be found in patent US20100166859A1, “NOVEL NUTRACEUTICAL COMPOSITIONS AND USE THEREOF” (priority 2006, published 2010).

Where a SMILES comes first, the peptide text is derived from it. [ ]: non-standard residue; d: D form. ξ: configuration not given here. ξP = O=C(O)C1CCCN1

For orientation: IC50 means the point on the concentration scale where inhibition reaches its midpoint.

The target of test [1] is AMPA receptor. Nature of the test: [3H] AMPA radioligand binding assay. The note with it: displacement of 5 nM [3H] AMPA, rat cerebral cortex membranes, 25° C., 90 min; semi-quantitative, duplicates. Here is the method:
Polypeptides or amino acid compositions of the instant invention were tested for the ability to bind to the AMPA receptor using a previously validated [3H] AMPA radioligand to binding assay (see, for example Olsen R W, Szamraj O, Houser C R Brain Res. 1987; 402(2):243-54.). Upon binding, the peptide is displacing the parent radioligand from the glutamate binding site of the AMPA receptor. Binding inhibition of 50% or more is generally considered as significant.
The membrane has been prepared as described in example 1.
Frozen pellets were thawed at room temperature and washed three times by resuspension in 50 mM Tris-acetate (pH 7.4) and centrifugation. Final pellets were suspended at concentrations of 2 to 3 mg/ml in 50 mM Tris-HCl (pH 7.4, 200 mM KSCN). Binding reactions were initiated by the addition of 200 μg of freshly prepared membranes to reaction mixtures (about 1 ml final volume) containing 5 nM [3H] AMPA at 25° C. in the presence of a range of peptide concentrations (0.5 μM, 1 μM, 10 μM, 100 μM and 200 μM). Incubation time was 90 min. Non-specific binding was determined using 1000 μM unlabelled L-Glutamic acid. […]
(§1) Assay results are presented as the % inhibition of specific binding. […] Semi-quantitative follow-up to estimate IC50 was done in duplicates at the indicated peptide concentrations.

The test system of test [2] is AMPA receptor. Put plainly: Whole cell patch-clamp on CA1 pyramidal cells in brain slices, synaptic AMPA responses. Type of test: cell-based, C57BL/6 mice. As for the experimental part: Whole cell patch-clamp experiments were performed in parasagital brain slices on CAI pyramidal cells. The animals used for this study were C57BL/6 mice. After decapitation of the mice brains were quickly removed and placed in aerated (95% O2, 5% CO2) artificial cerebrospinal fluid (ASCF) solution at 4° C. The ACSF solution was composed of (mM): 124 NaCl, 2.5 KCl, 1.3 MgCl2, 26 NaHCO3, 1.25 NaH2PO4, 2.5 CaCl2 […] Synaptic AMPA responses were evoked every 10 seconds with a bipolar platinum electrode and recorded in the voltage clamp configuration with 4-5 MΩ patch pipette at a holding potential of −60 mV. Baseline recordings were performed with 100 μM picrotoxin in the ACSF. After establishing a stable synaptic AMPA response the tripeptide EPP (140 μM) was added to the bath, continuing the recording for an additional 20 to 30 minutes. At the end of every experiment NBQX (20 μM) was bath applied to block the AMPA response. The residual trace was subtracted from the previous recordings to show only the AMPA current. […]
Parameters measured to estimate the action of EPP were the holding current, amplitude, and initial slope of the AMPA responses. Additionally the amplitude ratio and initial slope ratio of the two AMPA responses from the paired pulse experiments was determined.

Test [3] addresses glycine co-agonist site on the NMDA receptor (Rattus norvegicus, UniProt P35439). Put plainly: [3H] MDL-105519 radioligand binding assay, glycine co-agonist site of the NMDA receptor. Particulars: displacement of 0.33 nM [3H] MDL-105519, rat cerebral cortex membranes. Here is the method: Polypeptides or amino acid compositions of the instant invention were tested for the ability to bind to the glycine co-agonist site on the NMDA receptor using a previously validated [3H] MDL-105519 radioligand binding assay (see, for example Siegel B W, Sreekrishna K, Baron B M. Eur J Pharmacol. 1996 Oct. 3; 312(3):357-65). Upon binding, the peptide is displacing the parent radioligand from the NR1a binding site of the NMDA receptor. Binding inhibition of 50% or more is generally considered as significant.
Crude synaptic membranes used in the assay were prepared using rat cerebral cortex tissue (male Wistar rats) and extensively washed using the procedures described previously (Haring et al., 1991, J. Neurochem. 57:323-331). Briefly, tissue which has been stored at −80° C. was homogenized in ice-cold 5 mM Tris (pH 7.4) using a Polytron and then pelleted by centrifugation at 48,000 g for 20 minutes. The resulting supernatant was discarded, and the membranes washed three times in cold buffer. […]
Frozen pellets were thawed at room temperature and washed three times by resuspension in 50 mM Tris-acetate (pH 7.4) and centrifugation. […] Non-specific binding was determined using 10 μM unlabelled MDL-105519. […]
as §1

On AMPA receptor [1], `NC(CCC(=O)O)C(=O)N1CCCC1C(=O)N1CCCC1C(=O)O` (stereo not drawn) [EPP] (H-Glu-Pro-Pro-OH; configuration not given here) came in with an IC50 of 14 µM. For the same compound, in the test on AMPA receptor [2] (140 μM EPP in bath, baseline −83.9±14.1 pA, p<0.05, holding potential −60 mV), the “amplitude of the first synaptic AMPA response” value is reported as −130.6±22.6 pA. In the test on AMPA receptor [2] (140 μM EPP versus baseline, p=0.06), the “change in slope of the AMPA response” value was “just failed to reach significance”.
In the case of `NCC(=O)NCC(=O)N1CCCC1C(=O)O` (stereo not drawn) [GGP] (H-Gly-Gly-[ξP]-OH), in test [3] (4° C., 30 min, semi-quantitative, duplicates), the IC50 was found to be 11.3 µM.
As to `O=C(O)/C(=C/c1c(C(=O)O)[nH]c2cc(Cl)cc(Cl)c12)c1ccccc1` [MDL-105519, reference compound], the IC50 in test [3] (reference compound) was 0.0096 µM.
